Patent publication US12582646B2, “Method for treating drug or alcohol dependency” (AETHER THERAPEUTICS INC., priority 2019, dated 2026)

Tests used:
[1] = test system: peripheral and central opioid receptors; conditions: mice, given orally; cited from earlier work
[2] = test system: spontaneous opioid receptor activity; conditions: opioid dependent mice, 24 hours after the last morphine dose; cited from earlier work
[3] = molecular target: mu opioid receptor (Homo sapiens, UniProt P35372); conditions: cited from earlier work
Chain of mu opioid receptor (Homo sapiens, UniProt P35372) (P35372 whole entry, species assumed): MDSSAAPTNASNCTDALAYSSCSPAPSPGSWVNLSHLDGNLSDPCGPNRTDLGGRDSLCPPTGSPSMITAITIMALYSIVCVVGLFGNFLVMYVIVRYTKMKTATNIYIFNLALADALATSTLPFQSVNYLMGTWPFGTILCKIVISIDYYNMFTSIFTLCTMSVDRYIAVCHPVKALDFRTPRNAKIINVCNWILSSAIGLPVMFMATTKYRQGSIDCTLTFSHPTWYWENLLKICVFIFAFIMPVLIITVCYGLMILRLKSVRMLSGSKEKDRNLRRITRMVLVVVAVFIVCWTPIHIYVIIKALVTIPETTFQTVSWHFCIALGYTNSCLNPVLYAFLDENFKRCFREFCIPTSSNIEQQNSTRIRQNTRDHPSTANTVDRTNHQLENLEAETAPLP

[4] = test system: peripheral opioid receptors; assay: peripherally selective activity (internal results); type: in vivo
Description: The invention embodies usage of any of these compounds or derivatives or metabolites thereof. […] In combinations, any opioid analgesic is a feasible component, embodied in the combination patents mentioned above. An example is a combination product of oxycodone or hydrocodone with 6beta-naltrexol.

[5] = molecular target: T1, mu opioid receptor (Mus musculus, UniProt P42866); assay: internal unpublished: co-administration with morphine or methadone, subsequent opioid withdrawal, mice; type: in vivo; conditions: dose as low as 0.01 mg/kg given together with morphine or methadone
T1 construct: from tissue; host or cells: living mice (whole-animal pharmacology)
T1 sequence (P42866 whole entry): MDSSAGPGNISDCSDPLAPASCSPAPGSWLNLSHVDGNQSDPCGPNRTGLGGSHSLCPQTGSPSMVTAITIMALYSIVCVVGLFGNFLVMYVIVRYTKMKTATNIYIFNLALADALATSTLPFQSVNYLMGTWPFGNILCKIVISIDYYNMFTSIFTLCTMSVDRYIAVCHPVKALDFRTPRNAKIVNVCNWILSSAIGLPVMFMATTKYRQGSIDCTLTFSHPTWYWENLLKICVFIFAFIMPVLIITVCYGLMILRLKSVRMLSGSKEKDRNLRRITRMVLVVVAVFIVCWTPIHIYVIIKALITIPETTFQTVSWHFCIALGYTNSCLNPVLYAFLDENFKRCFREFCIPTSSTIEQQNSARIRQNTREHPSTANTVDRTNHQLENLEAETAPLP
Description: (§1) (See Corder G, Doolen S, Donahue R R, Winter M, Jutras B, He Y, Hu X, Wieskopf J S, Mogil J S, Storm D R, Wang Z J, McCarson K E, and Taylor B K, Constitutive μ-opioid receptor activity leads to long-term endogenous analgesia and dependence. Science 2013; 341,1394-1399; Corder G, Tawfik V L, Wang D, Sypek E I, Low S A, Dickinson J R, Sotoudeh C, Clark J D, Barres B A, Bohlen C J, Scherrer (2017). Loss of μ opioid receptor signaling in nociceptors, but not microglia, abrogates morphine tolerance without disrupting analgesia. Nat Med. 23:164-173; J. Oberdick, Y. L., M. A. Phelps, M. S. Yudovich, K. Schilling, and W. Sadee. Preferential delivery of an opioid antagonist to the fetal brain in pregnant mice. J. Pharmacol. Exp. Ther. 358: 22-30 (2016).

[6] = molecular target: T1, mu opioid receptor; conditions: 0.02 mg/kg co-injected s.c. with 20 mg/kg morphine for several days, juvenile mice; cited from earlier work
[7] = test system: mu opioid receptor; assay: internal unpublished: co-administration with morphine or methadone, subsequent opioid withdrawal, guinea pigs; type: in vivo; conditions: dose as low as 0.01 mg/kg given together with morphine or methadone
Description: as §1

[8] = oral bioavailability; type: in vivo; conditions: value assumed for oral dosing
Description: This step applies to opioid use disorders. […] The recommended initial dose is 2 mg naltrexol orally (assuming ˜30% oral bioavailability; estimated dosage range 0.5-10 mg), once or twice daily for 2-4 days, followed by 6 mg once or twice daily for 4-8 days (estimated dosage range 2-20 mg twice daily). Step 1 is designed to suppress peripheral effects of the opioid drug with minimal peripheral withdrawal symptoms, and reverse at least partially opioid dependence.
Opioid antagonist maintenance with 6-beta-naltrexol may require 100 mg (dosage range 40-300 mg) per day orally (assuming 20-40% bioavailability). […] Ceasing opioid use altogether must be medically supervised for at least one year to determine the rate of recidivism.

[9] = test system: peripheral and central opioid receptors; conditions: methadone maintenance subjects, single intravenous dose 0.5-1 mg; cited from earlier work
[10] = test system: rats habituated to high alcohol consumption; conditions: acute; cited from earlier work
[11] = in vivo; cited from earlier work
[12] = test system: peripheral and central opioid receptors; assay: intravenous 6beta-naltrexol in methadone maintenance subjects
[13] = molecular target: peripheral and central opioid receptors; assay: blocking morphine iv effects (analgesia, slowing of bowel movement) in opioid naive subjects; type: in vivo, humans
Description: Recommended doses are 20 mg (range 10-80 mg) once or twice daily for 4-8 days, then 40 mg (range 20-120 mg) once or twice daily for 1-4 weeks, and if necessary, further escalation to 100 mg (range 40-300 mg) once or twice daily for maintenance. […] Dosing schedules can be facilitated by designing sustained release formulations as described in preceding incorporated patents.

[14] = test system: opioid receptors; conditions: acutely morphine-dependent mice; cited from earlier work
[15] = 4 methadone replacement patients, IV doses up to 1 mg

## O=C1CC[C@@]2(O)[C@H]3Cc4ccc(O)c5c4[C@@]2(CCN3CC2CC2)[C@H]1O5 [naltrexone]
[1]
  potency in blocking peripheral and central opioid analgesic effects: equally potent
[2]
  withdrawal elicited by the antagonist: robust withdrawal

## CC(=O)N[C@@H]1CC[C@@]2(O)[C@H]3Cc4ccc(O)c5c4[C@@]2(CCN3CC2CC2)[C@@H]1O5 [6beta-naltrexamide]
[3]
  type of opioid antagonism: neutral antagonism
[4]
  peripherally selective activity: strong peripherally selective activity

## Oc1ccc2c3c1O[C@H]1[C@H](O)CC[C@@]4(O)[C@@H](C2)N(CC2CC2)CC[C@]314 [6beta-naltrexol]
[5]
  subsequent opioid withdrawal: reduces or prevents subsequent opioid withdrawal
[6]
  naloxone-withdrawal jumping after co-injection with morphine: significantly reduced
[7]
  subsequent opioid withdrawal: reduces or prevents subsequent opioid withdrawal
[8]; listed as 6-beta-naltrexol
  oral bioavailability: 20-40%
[8]; listed as naltrexol
  oral bioavailability: ~30%
[9]
  central withdrawal symptoms: no central withdrawal symptoms
  effect on opioid induced constipation: can reverse opioid induced constipation
[10]
  alcohol and sucrose intake: prevents both alcohol and sucrose intake acutely, but only at high doses
[11]
  half-life compared with typical opioid analgesics: longer half-life
[12]; 4 methadone replacement patients sensitive to 0.05 mg naloxone i.v.
  tolerated IV dose: up to 1 mg
[12]; [15]
  bowel effect: bowel movements
  withdrawal symptoms: some additional peripheral, but no central, withdrawal symptoms
[13]; iv
  IC50 for blocking morphine induced slowing of bowel movement: ~3 mg
[13]; single dose of 20 mg iv, opioid naive subjects
  block of analgesia caused by 10 mg morphine iv: failed to block analgesia
[14]
  effect on naloxone induced withdrawal jumping: prevent naloxone (inverse agonist) induced withdrawal jumping
